Key:
Type in all cases: cell-based, human
[1] = test system: MDA-MB-468 (GFP-LC3) cells; test: GFP-LC3 punctae (autophagosome formation) microscopy assay; details: for mean number of punctae per cell: 10 μM
Procedure: The human GFP-LC3 expression plasmid, pEGFP-LC3 (a gift from Drs. Grazia Ambrosini and Gary K. Schwartz, MSKCC), was stably transfected into MDA-MB-468 and selected with 0.5 mg/ml G418 sulfate. Stable populations were generated and compared to parental MDA-MB-468 for Sigma1 expression and autophagic and growth inhibitory response to Sigma ligands. GFP-LC3 translocation (punctae formation) was assessed by microscopy in MDA-MB-468 (GFP-LC3) stable cell populations. For microscopy-based experiments, cells were seeded onto Lab-Tek II glass chamber slides (Nalge Nunc International). […] Images of GFP-LC3 punctae were acquired with a Zeiss Axioplan 2 Imaging widefield microscope using Axiovision LE software. Punctae were counted using the spot quantitation program in the Fluoro-Chem software package (Alpha Innotech) and confirmed in parallel by manual counting. Autophagosome formation in MDAMB-468 (GFP-LC3) cells was quantitated as the mean number of GFP-LC3 punctae per GFP positive cell.
Initially, an established immunoblot-based assay to detect microtubule associated protein light chain 3 (LC3) lipidation was used to test for the activation of autophagy. […] Since transient transfections can produce spurious GFP-LC3 aggregates, stable GFP-LC3 transfected populations of MDA-MB-468 (GFP-LC3) were generated. […]

MDA-MB-468 cells = test: Cell size by flow cytometry (mean FSC-H, G1 phase); details: 10 μM, 24 hours
Procedure: FIG. 11 is a graph illustrating decrease in MDAMB468 cell size associated with the Sigma1 antagonist treatment. MDA-MB-468 cells were treated for 24 hours with DMSO (control), 10 μM IPAG (antagonist), or 10 μM PRE084 (agonist). Cell size was quantitated by flow cytometry, using a Becton Dickinson FACS Calibur flow cytometer with Cell Quest software. The mean forward scatter height (FSC-H) of the G1-phase population was determined as a measure of relative cell size. Single cells were gated away from aggregated cells using an FL2-width versus FL-2 area dot plot. Mean FSC-H±S.E. was calculated from at least 4 independent determinations. For each FSC-H determination, FACS analysis was performed on 10,000 single cells. The mean FSC-H of DMSO (control) and PRE084 treated MDA-MB-468 measured 370±6 and 372±7, respectively, whereas the mean FSC-H of IPAG treated MDA-MB-468 cells was 323±4. ** P<0.01 for IPAG compared to DMSO and IPAG compared to PRE084.
FIG. 31A is a differential interference contrast (DIC) image of MDA-MB-468 breast adenocarcinoma cells treated for ˜20 hours with DMSO (drug vehicle control), 10 μM IPAG (antagonist) or 10 μM PRE084 (agonist). A twenty-micron bar is shown in each image. Data are presented as mean±SEM. FIG. 31B is a graph illustrating the finding that IPAG diminished the mean cell size (FSC-H) of MDA-MB-468 breast tumor cells in a time-responsive manner. The mean FSC-H of 370±5 at to decreased to 323±4 after 24 hours of IPAG treatment and to 267±2 after 48 hours of treatment. Two-tailed t-tests were performed to determine statistical significance. For IPAG treatment compared to control (DMSO) and Sigma agonists (SKF and PRE084), P=0.0002 at d1 and P=0.00013 at d2. Data were generated from three to five independent determinations for each time-point. […] T-47D were treated for 24 h with 1 and 10 μM IPAG, and mean FSC-H was measured. […] For FIGS. 31B-31E, the mean FSC-H was determined for each cell cycle population (i.e., G1, S, G2/M), and data is shown for G1 phase cells. […]

[2] = test system: T-47D breast adenocarcinoma cells; test: Cell size by flow cytometry (mean FSC-H, G1 phase); details: 10 μM, 24 hours; control 412±5
Procedure: FIG. 31A is a differential interference contrast (DIC) image of MDA-MB-468 breast adenocarcinoma cells treated for ˜20 hours with DMSO (drug vehicle control), 10 μM IPAG (antagonist) or 10 μM PRE084 (agonist). A twenty-micron bar is shown in each image. Data are presented as mean±SEM. FIG. 31B is a graph illustrating the finding that IPAG diminished the mean cell size (FSC-H) of MDA-MB-468 breast tumor cells in a time-responsive manner. The mean FSC-H of 370±5 at to decreased to 323±4 after 24 hours of IPAG treatment and to 267±2 after 48 hours of treatment. Two-tailed t-tests were performed to determine statistical significance. For IPAG treatment compared to control (DMSO) and Sigma agonists (SKF and PRE084), P=0.0002 at d1 and P=0.00013 at d2. Data were generated from three to five independent determinations for each time-point. Flow cytometry was used to measure mean cell size (mean FSC-H) of T-47D breast adenocarcinoma cells. FIG. 31C is a bar graph illustrating T-47D cells treated for 24 hours with 10 μM indicated Sigma ligand. IPAG and BD 1047 (Sigma1 antagonists) diminished cell size from a mean FSC-H of 412±5 for control (DMSO) cells versus 341±7 and 381±8 for IPAG and BD1047 treated cells, respectively. […] Data represent 5 independent determinations (*P<0.05, ***P<0.001). FIG. 31D is a bar graph illustrating how IPAG (antagonist) decreases cell size in a dose responsive manner. T-47D were treated for 24 h with 1 and 10 μM IPAG, and mean FSC-H was measured. FIG. 31E is a graph illustrating that T47D cell size decreases over time. T-47D cells were treated for a total of 48 hours with 10 μM of the indicated Sigma ligands. […] Neither Sigma1 agonist, (+)-SKF10047 and PRE084, altered cell size. […] Two-tailed t-tests were performed to determine statistical significance. For IPAG treatment compared to control (DMSO) and Sigma1 agonists (SKF and PRE084), P=0.0002 at d1 and P<0.0001 at d2. For FIGS. 31B-31E, the mean FSC-H was determined for each cell cycle population (i.e., G1, S, G2/M), and data is shown for G1 phase cells. S and G2/M phase cells responded similarly (data not shown).

[3] = test system: MCF-7, T47D, DU145, PC3, HepG2 and Panc1 cells; test: LC3BII immunoblot in a range of tumor cell lines; details: 10 μM, 24 hours
Procedure: FIG. 36, comprising FIGS. 36A-36C, illustrates Sigma1 antagonist associated autophagy. FIG. 36A, comprises representative images of translocation of GFP-tagged LC3 (LC3-GFP) into autophagosomes in MDA-MB-468 (MDA468) breast adenocarcinoma cells. Only antagonist-treated MDA-MB-468 cells presented LC3-GFP translocation to autophagosomes: […]. […] The images are representative of at least 80 fields for each treatment condition. FIG. 36B is an image of an immunoblot illustrating the finding that formation of GFP-LC3II the formation of GFP-LC3 positive punctae, an indicator of autophagosome formation. Protein extracts from MDA-MB-468 cells stably transfected with and expressing GFP-LC3, treated for 24 hours with 10 μM of the indicated Sigma1 ligand. FIG. 36C comprises images of immunoblots illustrating that increased levels of the microtubule associated protein light chain 3BII isoform (LC3BII) is another broadly used indicator of activated autophagy. […] Legend: MCF-7 (breast adenocarcinoma), T47D (breast adenocarcinoma), DU145 (prostate adenocarcinoma), PC3 (prostate adenocarcinoma), HepG2 (hepatocellular carcinoma), and Panc1 (pancreatic adenocarcinoma).

[4] = test system: MDA-MB-468 breast adenocarcinoma cells; test: LC3 lipidation (LC3II) immunoblot; details: 10 μM, 24 hours
Procedure: Cells were lysed and proteins extracted in a modified RIPA buffer (25 mM Tris-HCl pH 7.6, 150 mM NaCl, 1% NP-40, 1% sodium deoxycholate and 0.1% SDS) supplemented with 10% glycerol (volume/volume), complete protease inhibitor cocktail (Roche), and Halt phosphatase inhibitor cocktail (Pierce). Approximately 10-20 μg of detergent soluble protein were resolved on NOVEX 10-20% polyacrylamide Tris-glycine gels (InVitrogen). Immunoblots were performed in a 20 mM Tris-buffered 137 mM saline solution (pH 7.6) containing 0.1% Tween-20 (polyoxyethylene (20) sorbitan monolaurate) and 5% (weight/volume) blotting grade non-fat dry milk (BioRad). The Lumigen PS-3 enhanced chemiluminescence kit (GE Healthcare) was used to reveal immunoblotted proteins.
Initially, an established immunoblot-based assay to detect microtubule associated protein light chain 3 (LC3) lipidation was used to test for the activation of autophagy. […] Since transient transfections can produce spurious GFP-LC3 aggregates, stable GFP-LC3 transfected populations of MDA-MB-468 (GFP-LC3) were generated. These cells were treated for 24 hours with increasing concentrations of Sigma receptor antagonists and agonists, and were compared to basal and DMSO treated controls (FIGS. 4B & 4C).

[5] = test system: MCF-7, T47D and MDA-MB-468 cells; test: Cell proliferation by Alamar blue reduction, breast adenocarcinoma cultures; details: after 4 days of treatment, six drug concentrations
Description: In vitro cell proliferation was quantitated by Alamar blue reduction. The anti-proliferative effects of six drug concentrations of the indicated drugs were quantitated after 4 days of treatment.

PC3 cells = test: PC3 cell death by trypan blue exclusion; details: 5 μM
Procedure: FIG. 1, comprising FIGS. 1A-1B, illustrates prostate adenocarcinoma cell death induced by Sigma1 antagonists. […] Quantitated cell death was presented as the percentage of trypan blue positive cells per drug treated population. Salient cell death occurred following ˜24-48 hours of treatment with the Sigma antagonist.
Cell death was evaluated by trypan blue exclusion assay, as well as cleaved caspase 3 (Asp 175) and cleaved PARP (Asp 214) immunoblot. Trypan blue exclusion and propidium iodide staining were used to quantify general cell death and the presence of apoptotic cell death was confirmed by immunoblot. The percentage of dead cells in a given population was determined by quantifying the number of trypan blue positive (dead) cells and dividing by the total number of trypan blue positive and negative cells.

[6] = test system: PC3 prostate cancer cells; test: LC3BII immunoblot, prostate cancer cells; details: 10 μM, 24 hours
Procedure: FIG. 16, comprising FIGS. 16A-16B, illustrates Sigma antagonist associated autophagy. FIG. 16A illustrates representative images of the translocation of GFP-tagged LC3 (LC3-GFP) into autophagosomes in a control (DMSO) group and a haloperidol-treated group (10 μM, antagonist). FIG. 16B is an image of a gel illustrating increased levels of the microtubule-associated protein light chain 3BII isoform (CL3BII), which is a broadly used indicator of activated autophagy.
Sigma antagonist-induced ER stress led to the activation of autophagy in several tumor cell lines, including PC3 prostate cancer cells (FIG. 16). In preliminary experiments, an immunoblot assay was performed to detect the formation of the lipid-conjugated form of microtubule associated protein light chain 3 (LC3II), a widely used marker of autophagosome formation (FIG. 16).

PC3 and DU145 PCa cells = test: UPR induction in prostate cancer cell lines; details: preliminary experiments
Description: FIG. 15 is an image of an immunoblot illustrating induction of UPR in a prostate cancer cell line. […] P-IRE1α indicates phosphorylated IRE1α. Similar results were obtained with DU145 prostate cancer cells.
This might be due to an accumulation of ubiquitylated proteins or due to an increase in ubiquitin ligase activity. Progression of the ER stress response could be monitored by a set of markers, many of which have been directly linked to the UPR. The most extensively investigated sensors that initiate the UPR are IRE1α, PERK, and ATF6, which transduce signals to a cascade of effectors. Many of these UPR 4 effectors function as transcription factors that induce the synthesis of ER chaperones, such as GRP78/BiP and GRP94, involved in maintaining protein homeostasis.

[7] = test system: PC3 prostate adenocarcinoma cells; test: Ubiquitin (P4D1) immunoblot, prostate adenocarcinoma cells; details: 10 μM

SMILES | GFP-LC3 punctae per cell ([1]; drug concentrations up to 100 μM, 24 hours) | mean FSC-H (relative cell size) (MDA-MB-468 cells) | mean FSC-H (relative cell size) [2] | LC3BII levels [3] | mean number of punctae per cell ([1]; 24 hours, knockdown of Beclin1) [punctae per cell] | mean number of punctae per cell ([1]; 24 hours, without Beclin1 knockdown) [punctae per cell] | concentration at which precipitous cell death occurred ([1]; following 24 hours of treatment) [µM] | conversion of LC3 to LC3II (autophagosome formation) [4] | inhibition of cell proliferation [5] | treatment time after which salient cell death occurred (PC3 cells) [h] | LC3BII levels [6] | IRE1α and BiP levels (PC3 and DU145 PCa cells) | level of ubiquitinated proteins [7]
O=C(OCCN1CCOCC1)C1(c2ccccc2)CCCCC1 [PRE-084, 2-morpholin-4-ylethyl 1-phenylcyclohexane-1-carboxylate] | no more than 6±2 punctae per cell | 372±7 | did not alter cell size | did not significantly alter basal autophagy |  |  |  |  |  |  |  |  | 
O=C(CCCN1CCC(O)(c2ccc(Cl)cc2)CC1)c1ccc(F)cc1 [haloperidol, 4-[4-(4-chlorophenyl)-4-hydroxy-1-piperidyl]-1-(4-fluorophenyl)-butan-1-one] |  |  |  |  | 17±1 | 36±4 | 40 | converted LC3 to LC3II | also inhibited cell proliferation | 24 to 48 | salient induction of LC3BII levels | salient induction of IRE1α and BiP levels | increased level of ubiquinated proteins

— patent publication US9388126B2, “Sigma receptor ligands and methods of modulating cellular protein homeostasis using same” (Drexel University, priority 2012, dated 2016)
